Experimental data taken from patent US20190224279A1, “PHARMACEUTICAL ASSOCIATION COMPRISING A GROWTH FACTOR RECEPTOR AGONIST CONJUGATED TO A BIOACTIVE CARRIER FOR CONVERTING A NEOPLASTIC CELL INTO A NON-NEOPLASTIC CELL AND USES THEREOF” (HISTIDE AG, priority 2015, published 2019).
No end group written: not given here.

Key:
[1] = test system: neoplastic cells (osteosarcoma cells); assay: Immunofluorescence visualization (actin, vinculin, DAPI) of neoplastic cells on grafted polymer scaffold, 24 hours; format: cell-based; conditions: polymer scaffold covalently modified with mixture of GFR-binding compound and RGD peptide; 24 hours of culture
Method: FIG. 12 is (a) a representation of a Quantitative Real Time PCR analysis of the expression of DMP-1, SCT and RANK-L in neoplastic cells (osteosarcoma cells) cultured on a native polymer scaffold (control) and on a polymer scaffold grafted with a mixture comprising a GFR-binding compound as defined in the present disclosure and a RGD peptide, after 24 hours of culture, (b) immunofluorescence staining of a representative neoplastic cell (osteosarcoma cells) cultured on a polymer scaffold grafted with a mixture comprising a GFR-binding compound as defined in the present disclosure (ID SEQ NO: 2) and a RGD peptide, after 24 hours of culture. The actin filaments were immunostained by using Alexa 488-phalloidin. The focal adhesions were represented by immunostaining with anti-vinculin. The nucleus was stained with DAPI and is represented by a circle in the center of the cell. Scale bar: 5 μm. (c) is a diagram representing the grafting density of a radiolabeled GFR-binding compound as defined in the present disclosure covalently grafted on a polymer scaffold and of a radiolabeled GFR-binding compound and a non-labeled RGD peptide both grafted on a polymer scaffold. The measurements were performed by using radioactivity quantification (no significant difference was observed). […]

[2] = Stability of non-covalent association, release of FITC-labelled GFR-binding compound from carrier; format: physicochemical; conditions: SEQ ID NO: 9 with apatite ceramics, SEQ ID NO: 10 with type-I collagen sponge; after 3, 7 or 10 days
Method: Non-covalent associations of the bioactive carriers were performed under atmospheric conditions (air) at room temperature (about 22° C.). The non-covalent association was carried out using a mixture of GFR-binding compound of SEQ ID NO: 9 (concentration of 1×10^−3 M) with the apatite ceramics or a mixture of GFR-binding compound of SEQ ID NO: 10 (concentration of 1×10^−3M) with the type-I collagen sponge. The non-covalent pharmaceutical associations were characterized by covalently associating fluorescent GFR-binding compounds of SEQ ID NO: 9 and 10 (covalently bound to fluorescein isothiocyanate (FITC), FIG. 1).

Src kinase = assay: Adhesion checkpoint activation, western blot of Src kinase phosphorylation (FAK/Src kinase); format: cell-based, human; conditions: osteosarcoma cells on PET associations; 24 hours
Method: (§1) After 24 hours of culture, cells were permeabilized (10% SDS, 25 mM NaCl, 10 nM pepstatin and 10 nM leupeptin in distilled water and loading buffer), boiled for 10 minutes and resolved by reducing PAGE (Invitrogen). Proteins were transferred onto nitrocellulose, blocked, and labeled with HRP-conjugated antibodies (Invitrogen). Integrin αv, α5, α3, α4, β1, β, β5 and […] were blotted by treating the nitrocellulose with monoclonal anti-integrin (extracellular domain) αv, α5, α3, α4, β1, β3, β5 and β6 antibodies (Santa Cruz Biotechnology). Phosphor-Smad1/5/8 was blotted by treating the nitrocellulose with monoclonal anti-p-Smad1/5/8 (Santa Cruz Biotechnology). For all of the experiments the western blot was performed in triplicate, along with an additional blot for actin and coomassie blue staining to ensure constant protein load among samples.
(§2) Neoplastic cells (in this example osteosarcoma cells) were cultured on pharmaceutical associations comprising PET as a bioactive carrier and one of GFR-binding compounds of SEQ ID NO: 12, 19, 30 or 39. The main signaling pathways include: Ras/MAP kinase, FAK/Src kinase and PIP2 which are decreased after 24 hours as shown by western blot quantifications (FIG. 8). […] Finally, a decrease of 3-phosphoinositide-dependent protein kinase 1 (PDK1) protein expression was also was observed (FIG. 8C).

[3] = test system: Cyclin D (arithmetic mean of Cyclin D1, Cyclin D2 and Cyclin D3); assay: Cyclin D profile by RT-PCR; format: cell-based, human; conditions: osteosarcoma cells on PET associations; after the first 30 min of cell culture
Method: (§3) After 24 hours of culture, total RNA was extracted by using the RNeasy total RNA kit (Qiagen®) according to the manufacturer's instructions. Purified total RNA was used as a template in order to make cDNA by a reverse transcription reaction (Gibco BrI®) with random primers (Invitrogen®). The cDNA was then used as a template for a real-time PCR amplification in the presence of SYBR green reagents (Bio-Rad®) by using a thermocycler (iCycler, Biorad®). Data were analyzed with the iCycler IQ™® software and compared by the ΔΔCt method. Briefly, the mean Ct value of the target gene was normalized to its averaged Ct values of the housekeeping gene (GAPDH) to give a ΔCt value, which was then normalized to a control sample to obtain a ΔΔCt value. The results were obtained from two series of experiments performed in triplicate.
Neoplastic cells (in this example osteosarcoma cells) were cultured on pharmaceutical associations comprising PET as a bioactive carrier and one of GFR-binding compounds of SEQ ID NO: 12, 19, 30 or 39. The Cyclin D (the arithmetic mean of Cyclin D1, Cyclin D2 and Cyclin D3) gene expression decreased after the first 30 min of cell culture as shown by RT-PCR (FIG. 10).

ERK = assay: Adhesion checkpoint activation, western blot of ERK phosphorylation (Ras/MAP kinase); format: cell-based, human; conditions: osteosarcoma cells on PET associations; 24 hours
Method: as §1, §2

Vinculin = Vinculin gene expression by RT-PCR; format: cell-based, human; conditions: osteosarcoma cells on PET associations; 24 hours
Method: as §3
(§4) Neoplastic cells (in this example osteosarcoma cells) were cultured on pharmaceutical associations comprising PET as a bioactive carrier and one of GFR-binding compounds of SEQ ID NO: 12, 19, 30 or 39. After 24 hours, the Paxillin and Vinculin gene expression decreased as shown by RT-PCR (FIG. 9).

Paxillin = Paxillin gene expression by RT-PCR; format: cell-based, human; conditions: osteosarcoma cells on PET associations; 24 hours
Method: as §3, §4

[4] = test system: 3-phosphoinositide-dependent protein kinase 1 (PDK1); assay: Adhesion checkpoint activation, western blot of PDK1 protein expression (PIP2); format: cell-based, human; conditions: osteosarcoma cells on PET associations; 24 hours
Method: as §1, §2

Substance | Morphology of neoplastic cells by immunofluorescence visualization [1] | release of GFR-binding compound from non-covalent association [2] | phosphorylation of Src kinase (Src kinase) | Cyclin D gene expression [3] | phosphorylation at Thr202 and Tyr204 on ERK (ERK) | Vinculin gene expression (Vinculin) | Paxillin gene expression (Paxillin) | PDK1 protein expression [4]
SEQ ID NO: 2: a GFR-binding compound as defined in the present disclosure, grafted on a polymer scaffold in a mixture with a RGD peptide (KVGKASSVPTKLSAISTLYLDDMGVPTLKNYQNMVVRASGSH; also: grafted on polymer scaffold in mixture with RGD peptide) | Spheroid-like structures of neoplastic cells become predominant | – | – | – | – | – | – | –
SEQ ID NO: 9: GFR-binding compound non-covalently associated with apatite ceramics; sequence only in the sequence listing (RNVQCRPTQVQLSAISTLYLEIVRKKPLKNYQTLEDH; non-covalently associated with apatite ceramics; Non-cyclic GFR-binding peptide) | – | no significant release | – | – | – | – | – | –
SEQ ID NO: 10: GFR-binding compound non-covalently associated with type-I collagen sponge; sequence only in the sequence listing (PSSAPTQLSATSVLYYDDSSNVILRKHR; not fully specified) | – | no significant release | – | – | – | – | – | –
SEQ ID NO: 12: GFR-binding compound covalently associated with PET as bioactive carrier; sequence only in the sequence listing (KVGKASSVPTKLSAISMLYLDDMGVPTLKNYQNMVVRAS; also: covalently attached to PET (bioactive carrier), site not given here) | – | – | no phosphorylation at Thr416 but phosphorylation of Tyr527 | decreased | absence of phosphorylation | decreased | decreased | decrease
SEQ ID NO: 19: GFR-binding compound covalently associated with PET as bioactive carrier; sequence only in the sequence listing (PSSAPTQLSATSMLYYDDSSNVILRKHRQHNK; also: covalently attached to PET) | – | – | no phosphorylation at Thr416 but phosphorylation of Tyr527 | decreased | absence of phosphorylation | decreased | decreased | decrease
SEQ ID NO: 30: GFR-binding compound covalently associated with PET as bioactive carrier; sequence only in the sequence listing (APTKLSAISMLYYDSSNNVIEQLSN; also: covalently attached to PET) | – | – | no phosphorylation at Thr416 but phosphorylation of Tyr527 | decreased | absence of phosphorylation | decreased | decreased | decrease
SEQ ID NO: 39: GFR-binding compound covalently associated with PET as bioactive carrier; sequence only in the sequence listing (KASSVPTELSPISTLYKDENEKVVLKYHYDMVV; also: covalently attached to PET) | – | – | no phosphorylation at Thr416 but phosphorylation of Tyr527 | decreased | absence of phosphorylation | decreased | decreased | decrease
